Reference: patent EP4810052A2, “HCRHR2 SELECTIVE POLYPEPTIDES” (Gubra A/S, priority 2023, dated 2026)
Like-named read-outs stand apart in the source and are kept apart here. Starred links: 1 amine or outer side, 2 acyl side, 3 side chain; linkers in the order of their positions; H or OH if unused. Non-standard residues stand in square brackets, D forms with d. Residues, ends and D or L forms follow the SMILES beside them. Groups on a side chain read outwards from the residue. *: point of attachment. C20 diacid = O=C(O)CCCCCCCCCCCCCCCCCCC(=O)*; γGlu = O=C(O)[C@H](CCC(=O)[*:2])N[*:1]; Hyp = O=C(O)[C@@H]1C[C@@H](O)CN1; NMeI = CC[C@H](C)[C@H](NC)C(=O)O; Nle = CCCC[C@H](N)C(=O)O; AEEA = NCCOCCOCC(=O)O; Aib = CC(C)(N)C(=O)O

Key:
hCRHR1 = target: T1, hCRHR1 (Homo sapiens, UniProt P34998); assay: HTRF cAMP assay, determination of hCRHR1 potency (peptide libraries 5 conc., purified peptides 11 conc.); format: cell-based
T1 sequence (P34998 24-415): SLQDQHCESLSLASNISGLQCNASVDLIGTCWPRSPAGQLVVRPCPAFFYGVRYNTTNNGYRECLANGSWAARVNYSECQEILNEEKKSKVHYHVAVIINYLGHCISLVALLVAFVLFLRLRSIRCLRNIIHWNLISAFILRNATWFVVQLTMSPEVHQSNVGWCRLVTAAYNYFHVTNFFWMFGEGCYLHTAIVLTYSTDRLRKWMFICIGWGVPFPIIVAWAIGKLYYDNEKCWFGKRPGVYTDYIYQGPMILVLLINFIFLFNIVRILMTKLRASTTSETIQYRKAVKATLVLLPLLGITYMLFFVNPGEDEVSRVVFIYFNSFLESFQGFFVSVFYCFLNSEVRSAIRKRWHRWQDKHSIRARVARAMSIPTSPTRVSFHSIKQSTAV
Text: HTRF (CisBio) cAMP assay: The assay technology has thoroughly been described in the CisBio HTRF cAMP assay Kit manual (# 62AM4PEC). Briefly, time resolved fluorescence technic was applied to measure cAMP. This technic is based on a competitive immunoassay using cryptate-labelled anti-cAMP antibody and d2-labeled cAMP. In the absence of cellular cAMP, the anti-cAMP cryptate conjugate may get into proximity to cAMP-d2 conjugate and energy (FRET) can be transferred from cryptate to d2. CHO-K1 cells stably expressing the human corticotropin-releasing hormone receptor 1 (Eurofins/DiscoverX Cat #95-0047C2 hCRHR1 stable monoclonal cell lines) were used as cells in suspension, brought to life from frozen cell stocks immediately before assay performance. […] Concentration-response evaluation of compounds was performed with 5 concentrations of agonist peptides and EC50 values were calculated by nonlinear regression using sigmoid concentration-response with variable slope. Concentration-response evaluation of compounds was performed with 11 concentrations of agonist peptides and EC50 values were calculated by nonlinear regression using sigmoid concentration-response with variable slope.

hCRHR2 = target: T2, hCRHR2 (Homo sapiens, UniProt Q13324); assay: HTRF cAMP assay, determination of hCRHR2 potency (peptide libraries 5 conc., purified peptides 11 conc.); format: cell-based
T2 sequence (Q13324 1-411): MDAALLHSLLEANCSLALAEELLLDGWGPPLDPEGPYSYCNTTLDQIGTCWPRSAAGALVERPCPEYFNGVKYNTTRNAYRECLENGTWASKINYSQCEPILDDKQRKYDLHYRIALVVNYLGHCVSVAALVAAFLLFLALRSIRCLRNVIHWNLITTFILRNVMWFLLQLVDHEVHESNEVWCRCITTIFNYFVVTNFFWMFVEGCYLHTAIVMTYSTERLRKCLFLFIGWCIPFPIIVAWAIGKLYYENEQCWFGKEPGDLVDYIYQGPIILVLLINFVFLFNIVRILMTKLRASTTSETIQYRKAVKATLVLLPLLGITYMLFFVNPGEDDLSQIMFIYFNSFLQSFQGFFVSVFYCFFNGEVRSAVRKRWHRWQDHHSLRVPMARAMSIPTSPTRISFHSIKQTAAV
Text: HTRF (CisBio) cAMP assay: The assay technology has thoroughly been described in the CisBio HTRF cAMP assay Kit manual (# 62AM4PEC). Briefly, time resolved fluorescence technic was applied to measure cAMP. This technic is based on a competitive immunoassay using cryptate-labelled anti-cAMP antibody and d2-labeled cAMP. In the absence of cellular cAMP, the anti-cAMP cryptate conjugate may get into proximity to cAMP-d2 conjugate and energy (FRET) can be transferred from cryptate to d2.
CHO-K1 cells stably expressing the human corticotropin-releasing hormone receptor 2 (Eurofins/DiscoverX, Cat #95-0048C2 hCRHR2 stable monoclonal cell lines) were used as cells in suspension, brought to life from frozen cell stocks immediately before assay performance.
Concentration-response evaluation of compounds was performed with 5 concentrations of agonist peptides and EC50 values were calculated by nonlinear regression using sigmoid concentration-response with variable slope.
Concentration-response evaluation of compounds was performed with 11 concentrations of agonist peptides and EC50 values were calculated by nonlinear regression using sigmoid concentration-response with variable slope.

[1] = library peptides, matched molecular pairs L vs Nle in position X^38, read-out: Potency hCRHR1 pEC50 (converted)
[2] = library peptides, matched molecular pairs L vs Nle in position X^38, read-out: Potency hCRHR2 pEC50 (converted)
[3] = Table 4, library peptides having X^38 = Nle, read-out: hCRHR1 pEC50 (converted)
[4] = Table 4, library peptides having X^38 = Nle, read-out: hCRHR2 pEC50 (converted)

SMILES | EC50 (hCRHR1; [1]) [nM] | EC50 (hCRHR2; [2]) [nM] | EC50 (hCRHR1; [3]) [nM] | EC50 (hCRHR2; [4]) [nM]
CCCC[C@H](NC(=O)[C@@H](NC(=O)[C@H](CCC(=O)O)NC(=O)[C@H](C)NC(=O)[C@H](CC(N)=O)NC(=O)[C@@H](NC(=O)[C@H](CCCCNC(=O)COCCOCCNC(=O)COCCOCCNC(=O)CC[C@H](NC(=O)CC[C@H](NC(=O)CCCCCCCCCCCCCCCCCCC(=O)O)C(=O)O)C(=O)O)NC(=O)[C@H](C)NC(=O)[C@H](CCC(=O)O)NC(=O)[C@H](CCC(=O)O)NC(=O)[C@H](CCCNC(=N)N)NC(=O)[C@H](CCC(N)=O)NC(=O)[C@H](CO)NC(=O)[C@H](CCCNC(=N)N)NC(=O)[C@H](C)NC(=O)[C@H](CCCNC(=N)N)NC(=O)[C@H](C)NC(=O)[C@H](CCC(N)=O)NC(=O)[C@H](CCC(=O)O)NC(=O)[C@H](CC(C)C)NC(=O)[C@H](CC(C)C)NC(=O)[C@@H](NC(=O)[C@H](CCC(N)=O)NC(=O)[C@H](CC(C)C)NC(=O)[C@H](CC(C)C)NC(=O)CNC(=O)[C@@H](NC(=O)[C@@H]1CCCN1C(=O)[C@@H](NC(=O)[C@H](CC(=O)O)NC(=O)[C@H](CC(C)C)NC(=O)[C@H](CO)NC(=O)[C@H](CC(C)C)NC(=O)[C@@H](NC(=O)[C@@H](N)[C@@H](C)CC)C(C)C)C(C)C)[C@@H](C)CC)[C@@H](C)CC)[C@@H](C)O)[C@@H](C)CC)C(=O)N[C@@H](C)C(=O)N[C@@H](CCC(=O)O)C(=O)N[C@H](C(N)=O)C(C)C [compound 71] (H-IVLSLDVPIGLLQILLEQARARSQREEAK([AEEA-AEEA-γGlu-γGlu-C20 diacid])TNAEI[Nle]AEV-NH2) | 100000 | 0.631 | – | –
CCCC[C@H](NC(=O)[C@@H](NC(=O)[C@H](CCC(=O)O)NC(=O)C(C)(C)NC(=O)[C@H](CC(N)=O)NC(=O)[C@@H](NC(=O)[C@H](CCCCNC(=O)COCCOCCNC(=O)COCCOCCNC(=O)CC[C@H](NC(=O)CC[C@H](NC(=O)CCCCCCCCCCCCCCCCCCC(=O)O)C(=O)O)C(=O)O)NC(=O)[C@H](C)NC(=O)[C@H](CCC(N)=O)NC(=O)[C@H](CCC(=O)O)NC(=O)[C@H](CCCNC(=N)N)NC(=O)[C@H](C)NC(=O)[C@H](C)NC(=O)[C@H](CCCNC(=N)N)NC(=O)[C@H](C)NC(=O)[C@H](CCCNC(=N)N)NC(=O)[C@H](C)NC(=O)[C@H](CCC(N)=O)NC(=O)CNC(=O)[C@H](CC(C)C)NC(=O)[C@H](CC(C)C)NC(=O)[C@@H](NC(=O)[C@H](CCC(N)=O)NC(=O)[C@H](CC(C)C)NC(=O)[C@H](CC(C)C)NC(=O)CNC(=O)[C@@H](NC(=O)[C@@H]1CCCN1C(=O)[C@@H](NC(=O)[C@H](CC(=O)O)NC(=O)[C@H](CC(C)C)NC(=O)[C@H](CO)NC(=O)[C@H](CC(C)C)NC(=O)[C@@H](NC(=O)[C@@H](NC)[C@@H](C)CC)C(C)C)C(C)C)[C@@H](C)CC)[C@@H](C)CC)[C@@H](C)O)[C@@H](C)CC)C(=O)N[C@@H](C)C(=O)N[C@@H](CCC(=O)O)C(=O)N[C@H](C(N)=O)C(C)C [compound 204] (H-[NMeI]VLSLDVPIGLLQILLGQARARAAREQAK([AEEA-AEEA-γGlu-γGlu-C20 diacid])TN[Aib]EI[Nle]AEV-NH2) | – | – | 1000 | 0.0251
CCCC[C@H](NC(=O)[C@@H](NC(=O)[C@H](CCC(=O)O)NC(=O)C(C)(C)NC(=O)[C@H](CC(N)=O)NC(=O)[C@@H](NC(=O)[C@H](CCCCNC(=O)COCCOCCNC(=O)COCCOCCNC(=O)CC[C@H](NC(=O)CC[C@H](NC(=O)CCCCCCCCCCCCCCCCCCC(=O)O)C(=O)O)C(=O)O)NC(=O)[C@H](C)NC(=O)[C@H](CCC(N)=O)NC(=O)[C@H](CCC(=O)O)NC(=O)[C@H](CCCNC(=N)N)NC(=O)[C@H](C)NC(=O)[C@H](C)NC(=O)[C@H](CCCNC(=N)N)NC(=O)[C@H](C)NC(=O)[C@H](CCCNC(=N)N)NC(=O)[C@H](C)NC(=O)[C@H](CCC(N)=O)NC(=O)[C@@H](NC(=O)[C@H](CC(C)C)NC(=O)[C@H](CC(C)C)NC(=O)[C@@H](NC(=O)[C@H](CCC(N)=O)NC(=O)[C@H](CC(C)C)NC(=O)[C@H](CC(C)C)NC(=O)CNC(=O)[C@@H](NC(=O)[C@@H]1CCCN1C(=O)[C@@H](NC(=O)[C@H](CC(=O)O)NC(=O)[C@H](CC(C)C)NC(=O)[C@H](CO)NC(=O)[C@H](CC(C)C)NC(=O)[C@@H](NC(=O)[C@@H](NC)[C@@H](C)CC)C(C)C)C(C)C)[C@@H](C)CC)[C@@H](C)CC)C(C)C)[C@@H](C)O)[C@@H](C)CC)C(=O)N[C@@H](C)C(=O)N[C@@H](CCC(=O)O)C(=O)N[C@H](C(N)=O)C(C)C [compound 231] (H-[NMeI]VLSLDVPIGLLQILLVQARARAAREQAK([AEEA-AEEA-γGlu-γGlu-C20 diacid])TN[Aib]EI[Nle]AEV-NH2) | – | – | 2510 | 0.0631
CCCC[C@H](NC(=O)[C@@H](NC(=O)[C@H](CCC(=O)O)NC(=O)[C@H](C)NC(=O)[C@H](CC(N)=O)NC(=O)[C@@H](NC(=O)[C@H](CCCCNC(=O)COCCOCCNC(=O)COCCOCCNC(=O)CC[C@H](NC(=O)CC[C@H](NC(=O)CCCCCCCCCCCCCCCCCCC(=O)O)C(=O)O)C(=O)O)NC(=O)[C@H](C)NC(=O)[C@H](CCC(N)=O)NC(=O)[C@H](CCC(=O)O)NC(=O)[C@H](CCCNC(=N)N)NC(=O)[C@H](C)NC(=O)[C@@H](NC(=O)[C@H](CCCNC(=N)N)NC(=O)[C@H](C)NC(=O)[C@H](CCCNC(=N)N)NC(=O)[C@H](C)NC(=O)[C@H](CCC(N)=O)NC(=O)[C@H](CCC(=O)O)NC(=O)[C@H](CC(C)C)NC(=O)[C@H](CC(C)C)NC(=O)[C@@H](NC(=O)[C@H](CCC(N)=O)NC(=O)[C@H](CC(C)C)NC(=O)[C@H](CC(C)C)NC(=O)CNC(=O)[C@@H](NC(=O)[C@@H]1C[C@@H](O)CN1C(=O)[C@@H](NC(=O)[C@H](CC(=O)O)NC(=O)[C@H](CC(C)C)NC(=O)[C@H](CO)NC(=O)[C@H](CC(C)C)NC(=O)[C@@H](NC(=O)[C@@H](N)[C@@H](C)CC)C(C)C)C(C)C)[C@@H](C)CC)[C@@H](C)CC)C(C)C)[C@@H](C)O)[C@@H](C)CC)C(=O)N[C@@H](C)C(=O)N[C@@H](CCC(=O)O)C(=O)N[C@H](C(N)=O)C(C)C [compound 85] (H-IVLSLDV[Hyp]IGLLQILLEQARARVAREQAK([AEEA-AEEA-γGlu-γGlu-C20 diacid])TNAEI[Nle]AEV-NH2) | 2 | 0.251 | – | –
CC[C@H](C)[C@H](N)C(=O)N[C@H](C(=O)N[C@@H](CC(C)C)C(=O)N[C@@H](CO)C(=O)N[C@@H](CC(C)C)C(=O)N[C@@H](CC(=O)O)C(=O)N[C@H](C(=O)N1CCC[C@H]1C(=O)N[C@H](C(=O)NCC(=O)N[C@@H](CC(C)C)C(=O)N[C@@H](CC(C)C)C(=O)N[C@@H](CCC(N)=O)C(=O)N[C@H](C(=O)N[C@@H](CC(C)C)C(=O)N[C@@H](CC(C)C)C(=O)N[C@@H](CCC(=O)O)C(=O)N[C@@H](CCC(N)=O)C(=O)N[C@@H](C)C(=O)N[C@@H](CCCNC(=N)N)C(=O)N[C@@H](C)C(=O)N[C@@H](CCCNC(=N)N)C(=O)N[C@@H](C)C(=O)N[C@@H](CCC(N)=O)C(=O)N[C@@H](CCCNC(=N)N)C(=O)N[C@@H](CCC(=O)O)C(=O)N[C@@H](CCC(N)=O)C(=O)N[C@@H](C)C(=O)N[C@@H](CCCCNC(=O)COCCOCCNC(=O)COCCOCCNC(=O)CC[C@H](NC(=O)CC[C@H](NC(=O)CCCCCCCCCCCCCCCCCCC(=O)O)C(=O)O)C(=O)O)C(=O)N[C@H](C(=O)N[C@@H](CC(N)=O)C(=O)N[C@@H](C)C(=O)N[C@@H](CCC(=O)O)C(=O)N[C@H](C(=O)N[C@@H](CC(C)C)C(=O)N[C@@H](C)C(=O)N[C@@H](CCC(=O)O)C(=O)N[C@H](C(N)=O)C(C)C)[C@@H](C)CC)[C@@H](C)O)[C@@H](C)CC)[C@@H](C)CC)C(C)C)C(C)C [compound 56] (H-IVLSLDVPIGLLQILLEQARARAQREQAK([AEEA-AEEA-γGlu-γGlu-C20 diacid])TNAEILAEV-NH2) | 3160 | 0.398 | – | –
